Measurements as given in patent publication US20230109839A1, “THERAPEUTIC AGENT FOR TAUOPATHIES” (SUMITOMO PHARMA CO., LTD., priority 2020, published 2023).

Target: T1, human Nav1.1 (Homo sapiens, UniProt P35498)
T1 construct: host or cells: HEK293
Assay: Amplification of Nav1.1-derived voltage-gated sodium current (Nav1.1 current), automated patch clamp (Test 1)
Format: cell-based
Details: HEK293 cell line stably expressing human Nav1.1
Method: Test 1: Evaluation of the Amplification of Nav1.1-Derived Voltage-Gated Sodium Current (Nav1.1 Current) by Using a Cell Line Stably Expressing Human Nav1.1
(1) Preparation of Test Compound Solution
Test compounds were prepared by dissolving in DMSO at 200 times of the concentration at evaluation, and diluting the obtained solution to twice the concentration of evaluation with an extracellular fluid (135 mmol/L NaCl, 4 mmol/L KCl, 1 mmol/L MgCl2, 5 mmol/L CaCl2, 5 mmol/L Glucose, 10 mmol/L HEPES).
(2) Induction and Measurement of Nav1.1 Current
A HEK293 cell line stably expressing human Nav1.1 (cat #CYL3009, Eurofins DiscoverX Products, LLC, Human Embryonic Kidney 293) was purchased, and used in the present test. Nav1.1 current was induced by stimulating Ramp wave voltage. Detection of current which accompanied with the stimulation of voltage was carried out by a patch-clamp voltage-clamp method using HTS automated patch clamp system (SynchroPatch 768PE, Nanion Technologies GmbH, Germany). Only cells with more than 500 pA of voltage-gated sodium channel current were used for the evaluation of the activity of compounds on Nav1.1 current because there was the possibility that currents derived from endogenous voltage-gated sodium channels accounted for large proportion in cells with less than 500 pA of voltage-gated sodium channel current which was induced by stimulating Ramp wave voltage.
(3) Pharmacological Effect on Nav1.1 Current
The effect of test compounds on the amplification of Nav1.1-derived voltage-gated sodium current was evaluated by using a cell line stably expressing human Nav1.1 and HTS automated patch clamp system. In other words, test compounds were added in an extracellular fluid containing 1% DMSO, and evaluated as a change of the peak value of Nav1.1 current and the area under the curve (AUC).
(4) Method for Pharmacological Evaluation
The Nav1.1 current amplification rates of test compounds were calculated by the following formula:
Nav1.1 current amplification rate (%)=100×[the peak value of Nav1.1 current or the area under the curve after the addition of test compounds]/[the peak value of Nav1.1 current or the area under the curve before the addition of test compounds]−100

[1] = Concentration for evaluation 10 μM

| Nav1.1 current amplification rate (%) [1] | Nav1.1 current amplification rate (%) (Concentration for evaluation 1 μM) | Structure (SMILES) |
| --- | --- | --- |
| 387% | – | CC1CCC(c2ccc(=O)n(CC(=O)N3CCc4c(N5CCOCC5)cccc43)n2)CC1 (mixture of isomers) [Example 472] |
| 199% | – | CC1CC=C(c2ccc(=O)n(CC(=O)Nc3ccn4cc(C(F)(F)F)nc4c3)n2)CC1 (racemic) [Example 421] |
| 287% | – | Cc1nc2cc(NC(=O)Cn3nc(C4=CCC(C)CC4)ccc3=O)ccc2o1 (racemic) [Example 422] |
| 11% | – | Cc1noc2ccc(NC(=O)Cn3nc(C4=CCC(C)CC4)ccc3=O)cc12 (racemic) [Example 423] |
| 40% | – | CC1CC=C(c2ccc(=O)n(CC(=O)N3CC4(C3)CN(c3cccnc3)C4)n2)CC1 (racemic) [Example 424] |
| 333% | – | O=C(Cn1nc(C2=CCC(C(F)(F)F)CC2)ccc1=O)Nc1ccc2ocnc2c1 (racemic) [Example 446] |
| 148% | – | COc1cc(C2=CCC(C(F)(F)F)CC2)nn(CC(=O)Nc2ccc3ocnc3c2)c1=O (racemic) [Example 447] |
| 250% | – | COc1cc(C2=CCC(C)CC2)nn(CC(=O)Nc2ccc3ocnc3c2)c1=O (racemic) [Example 449] |
| 187% | – | COc1cc(=O)n(CC(=O)Nc2ccc3ocnc3c2)nc1C1=CCC(C(F)(F)F)CC1 (racemic) [Example 450] |
| – | 164% | CC1CC=C(c2ncc3cnn(CC(=O)Nc4ccn5ncnc5c4)c3n2)CC1 (racemic) [Example 764] |
| 40% | – | N#Cc1ccc(NC(=O)Cn2nc(N3CCCCC3)ccc2=O)cc1 [Example 3] |
| 3% | – | N#Cc1ccc(NC(=O)Cn2nc(N3CCCC3)ccc2=O)cc1 [Example 4] |
| 6% | – | N#Cc1ccc(NC(=O)Cn2nc(N3CCC(F)(F)CC3)ccc2=O)cc1 [Example 5] |
| 35% | – | CC(C)(C)C1CCN(c2ccc(=O)n(CC(=O)Nc3ccc(C#N)cc3)n2)CC1 [Example 6] |
| 3% | – | N#Cc1ccc(NC(=O)Cn2nc(N3CCCC(O)C3)ccc2=O)cc1 (centres unmarked) [Example 7] |
| 4% | – | N#Cc1ccc(NC(=O)Cn2nc(N3CCCC(C(N)=O)C3)ccc2=O)cc1 (centres unmarked) [Example 8] |
| 11% | – | COC1CCN(c2ccc(=O)n(CC(=O)Nc3ccc(C#N)cc3)n2)CC1 [Example 9] |
| 124% | – | N#Cc1ccc(NC(=O)Cn2nc(N3CCC(C(F)(F)F)CC3)ccc2=O)cc1 [Example 10] |
| 205% | – | N#Cc1ccc(NC(=O)Cn2nc(N3CCCCCC3)ccc2=O)cc1 [Example 11] |
| 241% | – | N#Cc1ccc(NC(=O)Cn2nc(N3CCCCCCC3)ccc2=O)cc1 [Example 12] |
| 76% | – | CC1CCCN(c2ccc(=O)n(CC(=O)Nc3ccc(C#N)cc3)n2)C1 (centres unmarked) [Example 13] |

| Nav1.1 current amplification rate (%) [1] | Nav1.1 current amplification rate (%) (Concentration for evaluation 1 μM) | Structure (SMILES) |
| --- | --- | --- |
| 9% | – | CC1CC(C)CN(c2ccc(=O)n(CC(=O)Nc3ccc(C#N)cc3)n2)C1 (centres unmarked) [Example 14] |
| 10% | – | CC1CC(C)CN(c2ccc(=O)n(CC(=O)Nc3ccc(C#N)cc3)n2)C1 (centres unmarked) [Example 15] |
| 59% | – | N#Cc1ccc(NC(=O)Cn2nc(N3CCCC(C(F)(F)F)C3)ccc2=O)cc1 (centres unmarked) [Example 16] |
| 212% | – | N#Cc1ccc(NC(=O)Cn2nc(N3CCC4(CC3)CC4)ccc2=O)cc1 [Example 17] |
| 11% | – | N#Cc1ccc(NC(=O)Cn2nc(N3CC4CC4C3)ccc2=O)cc1 (centres unmarked) [Example 18] |
| 98% | – | CC1CCN(c2ccc(=O)n(CC(=O)Nc3ccc(C#N)cc3)n2)C1 (centres unmarked) [Example 19] |
| 152% | – | N#Cc1ccc(NC(=O)Cn2nc(N3CCCC4(CC4)C3)ccc2=O)cc1 [Example 20] |
| 130% | – | CC1(C)CCN(c2ccc(=O)n(CC(=O)Nc3ccc(C#N)cc3)n2)C1 [Example 21] |
| 110% | – | CC1(C)CCCN(c2ccc(=O)n(CC(=O)Nc3ccc(C#N)cc3)n2)C1 [Example 22] |
| 28% | – | CC12CCC(CN(c3ccc(=O)n(CC(=O)Nc4ccc(C#N)cc4)n3)C1)C2(C)C (centres unmarked) [Example 23] |
| 286% | – | N#Cc1ccc(NC(=O)Cn2nc(N3CCC4(CCCC4)C3)ccc2=O)cc1 [Example 24] |
| 163% | – | N#Cc1ccc(NC(=O)Cn2nc(N3CCC4(CC4)C3)ccc2=O)cc1 [Example 25] |
| 364% | – | N#Cc1ccc(NC(=O)Cn2nc(N3CCC4(CCC4)CC3)ccc2=O)cc1 [Example 26] |
| 5% | – | N#Cc1ccc(NC(=O)Cn2nc(N3CCC4(CC3)COC4)ccc2=O)cc1 [Example 27] |
| 158% | – | CCC1(C)CCN(c2ccc(=O)n(CC(=O)Nc3ccc(C#N)cc3)n2)CC1 [Example 28] |
| 20% | – | N#Cc1ccc(NC(=O)Cn2nc(N3CCC4(CCCO4)CC3)ccc2=O)cc1 [Example 29] |
| 77% | – | CCCCN(C)c1ccc(=O)n(CC(=O)Nc2ccc(C#N)cc2)n1 [Example 30] |
| 220% | – | N#Cc1ccc(NC(=O)Cn2nc(N3CCC4(CCCCC4)C3)ccc2=O)cc1 [Example 31] |
| 60% | – | N#Cc1ccc(NC(=O)Cn2nc(N3CCC4(CC3)CC(F)(F)C4)ccc2=O)cc1 [Example 32] |
| 220% | – | N#Cc1ccc(NC(=O)Cn2nc(N3CCCC4(CCC4)C3)ccc2=O)cc1 [Example 33] |
| 311% | – | N#Cc1ccc(NC(=O)Cn2nc(N3CCC4(CCC4)C3)ccc2=O)cc1 [Example 34] |

| Nav1.1 current amplification rate (%) [1] | Nav1.1 current amplification rate (%) (Concentration for evaluation 1 μM) | Structure (SMILES) |
| --- | --- | --- |
| 301% | – | Cc1c(N2CCC(C)CC2)nn(CC(=O)Nc2ccc(C#N)cc2)c(=O)c1C [Example 35] |
| 312% | – | CC1CCN(c2nn(CC(=O)Nc3ccc(C#N)cc3)c(=O)c3c2CCCC3)CC1 [Example 36] |
| 125% | – | N#Cc1ccc(NC(=O)Cn2nc(C3=CCCCC3)ccc2=O)cc1 [Example 39] |
| 20% | – | N#Cc1ccc(NC(=O)Cn2nc(C3CCCCC3)ccc2=O)cc1 [Example 40] |
| 324% | – | CC1CC=C(c2ccc(=O)n(CC(=O)Nc3ccc(C#N)cc3)n2)CC1 (centres unmarked) [Example 41] |
| 216% | – | CC1(C)CC=C(c2ccc(=O)n(CC(=O)Nc3ccc(C#N)cc3)n2)CC1 [Example 42] |
| 174% | – | C[C@H]1CC[C@H](c2ccc(=O)n(CC(=O)Nc3ccc(C#N)cc3)n2)CC1 [Example 43] |
| 59% | – | C[C@H]1CC[C@@H](c2ccc(=O)n(CC(=O)Nc3ccc(C#N)cc3)n2)CC1 [Example 44] |
| 202% | – | CC1(C)CCC=C(c2ccc(=O)n(CC(=O)Nc3ccc(C#N)cc3)n2)C1 [Example 45] |
| 85% | – | CC1(C)CCCC(c2ccc(=O)n(CC(=O)Nc3ccc(C#N)cc3)n2)C1 (centres unmarked) [Example 46] |
| 11% | – | N#Cc1ccc(NC(=O)Cn2nc(C3CCC(F)(F)CC3)ccc2=O)cc1 [Example 47] |
| 2% | – | CC1C=C(c2ccc(=O)n(CC(=O)Nc3ccc(C#N)cc3)n2)CC(C)O1 (centres unmarked) [Example 49] |
| 20% | – | Cc1cc(NC(=O)Cn2nc(N3CCC(C)CC3)ccc2=O)cc(C)n1 [Example 54] |
| 111% | – | CC1CCN(c2ccc(=O)n(CC(=O)Nc3cccc(C#N)c3)n2)CC1 [Example 55] |
| 10% | – | CC1CCN(c2ccc(=O)n(CC(=O)Nc3cncnc3)n2)CC1 [Example 56] |
| 48% | – | CC1CCN(c2ccc(=O)n(CC(=O)Nc3ccnc(N(C)C)c3)n2)CC1 [Example 57] |
| 26% | – | CC1CCN(c2ccc(=O)n(CC(=O)Nc3ccc(F)nc3)n2)CC1 [Example 58] |
| 180% | – | CC1CCN(c2ccc(=O)n(CC(=O)Nc3ccc(C(F)(F)F)nc3)n2)CC1 [Example 59] |
| 57% | – | CC1CCN(c2ccc(=O)n(CC(=O)Nc3cncc(C#N)c3)n2)CC1 [Example 60] |
| 77% | – | CC1CCN(c2ccc(=O)n(CC(=O)Nc3cncc(C(F)(F)F)c3)n2)CC1 [Example 61] |

| Structure (SMILES) | Nav1.1 current amplification rate (%) [1] | Nav1.1 current amplification rate (%) (Concentration for evaluation 1 μM) |
| --- | --- | --- |
| CC1CCN(c2ccc(=O)n(CC(=O)Nc3ccc(C#N)nc3)n2)CC1 [Example 51] | 196% | – |
| CC1CCN(c2ccc(=O)n(CC(=O)Nc3ccnc(C(F)(F)F)c3)n2)CC1 [Example 52] | 248% | – |
| CC1CCN(c2ccc(=O)n(CC(=O)Nc3ccnc(C#N)c3)n2)CC1 [Example 53] | 161% | – |
